From patent US20220402932A1, “Compounds Constituting C20-Modified Salinomycin Derivatives, a Method for Obtaining the Same, a Composition Containing the Same, a Use of Said Compounds and a Method for Obtaining an Intermediate Product” (FILECLO SP. Z O.O., priority 2020, published 2022)

What was measured:
[1] = system: cancer cell lines B16-F0, Hs294T, LoVo, LoVo/DX, MCF-7, MV-4-11; assay: In vitro cytotoxicity tests (SRB / MTT) on cancer cell lines; type: cell-based, human and murine; conditions: versus salinomycin; from Table 3 IC50 data; 72 hours incubation
Experimental: (§1) The solvent for further dilutions was a culture medium.
(§2) The experiments were repeated at least 3 times.
(§3) After 4 hours of incubation at 37° C., 80 μL of lysis buffer was added to each well.

[2] = system: advanced head, neck, breast and ovarian cancer; conditions: small group of patients with advanced head; cited from earlier work
[3] = system: MV-4-11 (human biphenotypic leukaemia); assay: In vitro cytotoxicity test, MTT assay, MV-4-11; type: cell-based; conditions: 72 hours incubation
Experimental: as §1, §2, §3

SMILES | anti-proliferative effect compared to the parent compound [1] | effect on cancer progression [2] | side effects [2] | effect against biphenotypic leukaemia cells [3]
C#CCOC(=O)N[C@@H]1C=C[C@]2(O[C@H]([C@@H](CC)C(=O)[C@@H](C)[C@@H](O)[C@H](C)[C@@H]3O[C@@H]([C@@H](CC)C(=O)O)CC[C@@H]3C)[C@@H](C)C[C@H]2C)O[C@@]12CC[C@@](C)([C@H]1CC[C@](O)(CC)[C@H](C)O1)O2 [formula (22), C20-dehydroxy-C20-aminosalinomycin N-propargylcarbamate] | tens of times more potent | – | – | –
CC[C@@H](C(=O)[C@@H](C)[C@@H](O)[C@H](C)[C@@H]1O[C@@H]([C@@H](CC)C(=O)O)CC[C@@H]1C)[C@H]1O[C@]2(C=C[C@@H](NC(=O)C(C)C)[C@]3(CC[C@@](C)([C@H]4CC[C@](O)(CC)[C@H](C)O4)O3)O2)[C@H](C)C[C@@H]1C [formula (10), C20-dehydroxy-C20-aminosalinomycin N-isobutyramide] | several times more potent | – | – | –
CC[C@@H](C(=O)[C@@H](C)[C@@H](O)[C@H](C)[C@@H]1O[C@@H]([C@@H](CC)C(=O)O)CC[C@@H]1C)[C@H]1O[C@]2(C=C[C@@H](O)[C@]3(CC[C@@](C)([C@H]4CC[C@](O)(CC)[C@H](C)O4)O3)O2)[C@H](C)C[C@@H]1C [Salinomycin] | – | inhibition of cancer progression | no acute side effects | –
CC[C@@H](C(=O)[C@@H](C)[C@@H](O)[C@H](C)[C@@H]1O[C@@H]([C@@H](CC)C(=O)[O-])CC[C@@H]1C)[C@H]1O[C@]2(C=C[C@@H](NC(=O)NCCCCl)[C@]3(CC[C@@](C)([C@H]4CC[C@](O)(CC)[C@H](C)O4)O3)O2)[C@H](C)C[C@@H]1C.[Na+] [formula (25), 3-chloropropylurea of C20-dehydroxy-C20-aminosalinomycin] | tens of times more potent | – | – | preferred effect
CC[C@@H](C(=O)[C@@H](C)[C@@H](O)[C@H](C)[C@@H]1O[C@@H]([C@@H](CC)C(=O)O)CC[C@@H]1C)[C@H]1O[C@]2(C=C[C@@H](NC(=O)c3ccccc3)[C@]3(CC[C@@](C)([C@H]4CC[C@](O)(CC)[C@H](C)O4)O3)O2)[C@H](C)C[C@@H]1C [formula (15), C20-dehydroxy-C20-aminosalinomycin N-benzamide] | several times more potent | – | – | –
